The values below come from patent US9085555B2, “Complement pathway modulators and uses thereof” (priority 2011, dated 2015).

The target of this experiment is Factor D (Homo sapiens (Human), UniProt P00746). The experiment is described as follows: biochemical. Conditions: read-out: IC50. The format is biochemical.
Sequence of Factor D (P00746 26-253): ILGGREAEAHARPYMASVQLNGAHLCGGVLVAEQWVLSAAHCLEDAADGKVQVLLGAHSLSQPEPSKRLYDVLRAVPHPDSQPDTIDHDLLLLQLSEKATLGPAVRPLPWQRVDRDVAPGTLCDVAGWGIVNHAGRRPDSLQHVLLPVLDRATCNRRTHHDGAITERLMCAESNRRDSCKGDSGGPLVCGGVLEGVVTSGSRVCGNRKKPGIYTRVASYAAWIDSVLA

The term IC50 denotes the midpoint of a concentration-inhibition curve. As for `NC(=O)n1cc(NC(=O)N2C[C@H](F)C[C@H]2C(=O)NCc2cccc(Cl)c2F)c2ccc(OC(F)F)cc21` [Example 308, (2S,4R)-4-Fluoro-pyrrolidine-1,2-dicarboxylic acid 1-[(1-carbamoyl-6-difluoromethoxy-1H-indol-3-yl)-amide] 2-(3-chloro-2-fluoro-benzylamide)], the concentration for half-maximal inhibition (IC50) was determined as 127 nM.
With `COc1cc(NC(=O)[C@@H]2C[C@@H](F)CN2C(=O)Nc2cn(C(N)=O)c3ccccc23)ccn1` [Example 309, (2S,4R)-4-Fluoro-pyrrolidine-1,2-dicarboxylic acid 1-[(1-carbamoyl-1H-indol-3-yl)-amide] 2-[(2-methoxy-pyridin-4-yl)-amide]] the figure was 550 nM; with `NC(=O)n1cc(NC(=O)N2CCS[C@H]2C(=O)Nc2cncc(Cl)c2)c2ccccc21` [Example 310, (S)-Thiazolidine-2,3-dicarboxylic acid 3-[(1-carbamoyl-1H-indol-3-yl)-amide] 2-[(5-chloro-pyridin-3-yl)-amide]], 475 nM; with `C=CCOc1ccc2c(NC(=O)N3C4CC4C[C@H]3C(=O)NCc3cccc(Cl)c3F)cn(C(N)=O)c2c1` (stereo partly drawn) [Example 311, (1R,3S,5R)-2-Aza-bicyclo[3.1.0]hexane-2,3-dicarboxylic acid 2-[(6-allyloxy-1-carbamoyl-1H-indol-3-yl)-amide] 3-(3-chloro-2-fluoro-benzylamide)], 70 nM.
With `NC(=O)n1cc(NC(=O)N2C[C@@H](CO)C[C@H]2C(=O)NCc2cccc(Cl)c2F)c2ccccc21` [Example 312, (2S,4S)-4-Hydroxymethyl-pyrrolidine-1,2-dicarboxylic acid 1-[(1-carbamoyl-1H-indol-3-yl)-amide] 2-(3-chloro-2-fluoro-benzylamide)] the figure was 115 nM; with `NC(=O)n1cc(NC(=O)N2CCC[C@H]2C(=O)Nc2cccc(OC(F)(F)F)c2)c2ccc(OCc3ccccc3)cc21` [Example 313, (S)-Pyrrolidine-1,2-dicarboxylic acid 1-[(6-benzyloxy-1-carbamoyl-1H-indol-3-yl)-amide]2-[(3-trifluoromethoxy-phenyl)-amide]], 1300 nM; with `CN(C)C[C@@H](NC(=O)[C@@H]1C[C@H]2C[C@H]2N1C(=O)Nc1cn(C(N)=O)c2ccccc12)c1cccc(Cl)c1F` [Example 314, (1R,3S,5R)-2-Aza-bicyclo[3.1.0]hexane-2,3-dicarboxylic acid 2-[(1-carbamoyl-1H-indol-3-yl)-amide] 3-{[(S)-1-(3-chloro-2-fluoro-phenyl)-2-dimethylamino-ethyl]-amide}], 20 nM.
The same measure for `CCOC(=O)Cc1ccc2c(NC(=O)N3[C@@H]4C[C@@H]4C[C@H]3C(=O)NCc3cccc(Cl)c3F)cn(C(N)=O)c2c1` [Example 315, (1-carbamoyl-3-{[(1R,3S,5R)-3-(3-chloro-2-fluoro-benzylcarbamoyl)-2-aza-bicyclo[3.1.0]hexane-2-carbonyl]-amino}-1H-indol-6-yl)-acetic acid ethyl ester]: 13 nM; for `CO[C@@H]1C[C@@H](C(=O)Nc2cccc(OC(F)(F)F)c2)N(C(=O)Nc2cn(C(N)=O)c3ccccc23)C1` [Example 316, (2S,4R)-4-Methoxy-pyrrolidine-1,2-dicarboxylic acid 1-[(1-carbamoyl-1H-indol-3-yl)-amide] 2-[(3-trifluoromethoxy-phenyl)-amide]]: 3100 nM; for `CC(C)(C)c1cc(NC(=O)[C@@H]2C[C@@H](F)CN2C(=O)Nc2cn(C(N)=O)c3ccccc23)ccn1` [Example 317, (2S,4R)-4-Fluoro-pyrrolidine-1,2-dicarboxylic acid 2-[(2-tert-butyl-pyridin-4-yl)-amide] 1-[(1-carbamoyl-1H-indol-3-yl)-amide]]: 2800 nM.
`COC(=O)COc1ccc2c(c1)c(NC(=O)N1C[C@](C)(F)C[C@H]1C(=O)NCc1cccc(Cl)c1F)cn2C(N)=O` [Example 318, (1-carbamoyl-3-{[(2S,4R)-2-(3-chloro-2-fluoro-benzylcarbamoyl)-4-fluoro-4-methyl-pyrrolidine-1-carbonyl]amino}-1H-indol-5-yloxy)-acetic acid methyl ester]: the IC50 stood at 3 nM.
With `NC(=O)n1cc(NC(=O)N2C[C@H](F)C[C@H]2C(=O)N[C@H](c2cccc(Cl)c2)C(F)(F)F)c2ccccc21` [Example 319, (2S,4R)-4-Fluoro-pyrrolidine-1,2-dicarboxylic acid 1-[(1-carbamoyl-1H-indol-3-yl)-amide] 2-{[(R)-1-(3-chloro-phenyl)-2,2,2-trifluoro-ethyl]-amide}] the figure was 548 nM; with `NC(=O)n1cc(NC(=O)N2[C@@H]3C[C@@H]3C[C@H]2C(=O)N[C@H](CO)c2cccc(Cl)c2)c2ccccc21` [Example 320, (1R,3S,5R)-2-Aza-bicyclo[3.1.0]hexane-2,3-dicarboxylic acid 2-[(1-carbamoyl-1H-indol-3-yl)-amide] 3-{[(S)-1-(3-chloro-phenyl)-2-hydroxy-ethyl]-amide}], 7 nM.
With `NC(=O)n1cc(NC(=O)N2CCS[C@H]2C(=O)Nc2cncc(Br)c2)c2ccccc21` [Example 321, (S)-Thiazolidine-2,3-dicarboxylic acid 3-[(1-carbamoyl-1H-indol-3-yl)-amide] 2-[(5-bromo-pyridin-3-yl)-amide]] the figure was 85 nM; with `CN1CCN(C(=O)c2cc(Cl)c(F)c(CNC(=O)[C@@H]3C[C@@H](F)CN3C(=O)Nc3cn(C(N)=O)c4ccccc34)c2)CC1` [Example 322, (2S,4R)-4-Fluoro-pyrrolidine-1,2-dicarboxylic acid 1-[(1-carbamoyl-1H-indol-3-yl)-amide] 2-[3-chloro-2-fluoro-5-(4-methyl-piperazine-1-carbonyl)-benzylamide]], 348 nM; with `NC(=O)n1cc(NC(=O)N2C[C@H](F)C[C@H]2C(=O)Nc2ccncc2F)c2ccccc21` [Example 323, (2S,4R)-4-Fluoro-pyrrolidine-1,2-dicarboxylic acid 1-[(1-carbamoyl-1H-indol-3-yl)-amide] 2-[(3-fluoro-pyridin-4-yl)-amide]], 902 nM.
Regarding `NC(=O)c1cccc(NC(=O)[C@@H]2CCCN2C(=O)Nc2cn(C(N)=O)c3ccccc23)c1` [Example 324, (S)-Pyrrolidine-1,2-dicarboxylic acid 1-[(1-carbamoyl-1H-indol-3-yl)-amino] 2-[(3-carbamoyl-phenyl)-amide]], the concentration for half-maximal inhibition (IC50) was 4250 nM.
As for `CS(=O)(=O)c1cccc(NC(=O)[C@@H]2CCCN2C(=O)Nc2cn(C(N)=O)c3ccccc23)c1` [Example 325, (S)-Pyrrolidine-1,2-dicarboxylic acid 1-[(1-carbamoyl-1H-indol-3-yl)-amide] 2-[(3-methanesulfonyl-phenyl)-amide]], the IC50 is 2250 nM.
The same measure for `NC(=O)n1cc(NC(=O)N2C[C@H](F)C[C@H]2C(=O)Nc2ncccc2F)c2ccccc21` [Example 327, (2S,4R)-4-Fluoro-pyrrolidine-1,2-dicarboxylic acid 1-[(1-carbamoyl-1H-indol-3-yl)-amide] 2-[(3-fluoro-pyridin-2-yl)-amide]]: 1700 nM.
With `CN(C)CCN(C)c1cc(Cl)c(F)c(CNC(=O)[C@@H]2C[C@@H](F)CN2C(=O)Nc2cn(C(N)=O)c3ccccc23)c1` [Example 329, (2S,4R)-4-Fluoro-pyrrolidine-1,2-dicarboxylic acid 1-[(1-carbamoyl-1H-indol-3-yl)-amide] 2-{3-chloro-5-[(2-dimethylamino-ethyl)-methyl-amino]-2-fluoro-benzylamide}] the figure was 181 nM.
The same measure for `CC(C)(C)c1cccc(NC(=O)[C@@H]2CC3CC3N2C(=O)Nc2cn(C(N)=O)c3ccccc23)c1` (stereo partly drawn) [Example 330, (1R,3S,5R)-2-Aza-bicyclo[3.1.0]hexane-2,3-dicarboxylic acid 3-[(3-tert-butyl-phenyl)-amide] 2-[(1-carbamoyl-1H-indol-3-yl)-amide]]: 250 nM.
In the case of `NC(=O)n1cc(NC(=O)N2C[C@@H](O)C[C@H]2C(=O)NCc2cccc(Cl)c2F)c2ccccc21` [Example 331, (2S,4S)-4-Hydroxy-pyrrolidine-1,2-dicarboxylic acid 1-[(1-carbamoyl-1H-indol-3-yl)-amide] 2-(3-chloro-2-fluoro-benzylamide)], the IC50 came out at 35 nM.
For `CCOC(=O)c1cc(Br)c(F)c(NC(=O)[C@@H]2C[C@@H](F)CN2C(=O)Nc2cn(C(N)=O)c3ccccc23)c1` [Example 333, 3-Bromo-5-{[(2S,4R)-1-(1-carbamoyl-1H-indol-3-ylcarbamoyl)-4-fluoro-pyrrolidine-2-carbonyl]-amino}-4-fluoro-benzoic acid ethyl ester], the IC50 came out at 47 nM.
With `C=CCOc1ccc2c(c1)c(NC(=O)N1CCC[C@H]1C(=O)Nc1cccc(OC(F)(F)F)c1)cn2C(N)=O` [Example 335, (S)-Pyrrolidine-1,2-dicarboxylic acid 1-[(5-allyloxy-1-carbamoyl-1H-indol-3-yl)-amide] 2-[(3-trifluoromethoxy-phenyl)-amide]] the figure was 550 nM; with `C[C@@H]1CC[C@@H](C(=O)Nc2cccc(OC(F)(F)F)c2)N1C(=O)Nc1cn(C(N)=O)c2ccccc12` [Example 336, (2S,5R)-5-Methyl-pyrrolidine-1,2-dicarboxylic acid 1-[(1-carbamoyl-1H-indol-3-yl)-amide]2-[(3-trifluoromethoxy-phenyl)-amide]], 750 nM.
`C[C@H]1CC[C@@H](C(=O)Nc2cccc(OC(F)(F)F)c2)N1C(=O)Nc1cn(C(N)=O)c2ccccc12` [Example 337, (2S,5S)-5-Methyl-pyrrolidine-1,2-dicarboxylic acid 1-[(1-carbamoyl-1H-indol-3-yl)-amide]2-[(3-trifluoromethoxy-phenyl)-amide]]: the IC50 came to 250 nM.
With `CC[C@@H]1CC[C@@H](C(=O)Nc2cccc(OC(F)(F)F)c2)N1C(=O)Nc1cn(C(N)=O)c2ccccc12` [Example 338, (2S,5R)-5-Ethyl-pyrrolidine-1,2-dicarboxylic acid 1-[(1-carbamoyl-1H-indol-3-yl)-amide]2-[(3-trifluoromthoxy-phenyl)-amide]] the figure was 18900 nM; with `NC(=O)n1cc(NC(=O)N2C[C@H](F)C[C@H]2C(=O)Nc2cc(Cl)cc(C(=O)O)c2)c2ccccc21` [Example 339, 3-Chloro-5-{[(2S,4R)-1-(1-carbamoyl-1H-indol-3-ylcarbamoyl)-4-fluoro-pyrrolidine-2-carbonyl]-amino}-benzoic acid], 65 nM.
